From PubChem BioAssay AID248 (DTP/NCI, 2004)
Several values for one entry are separate records, joined by “and”; a condition that tells them apart may be missing. Identical values can stand only once. Inconclusive results and toxic doses are left out. No stated cut-off is given here; in the data, active means T/C of 150% or more; inactive means T/C below 125%.

Test system: L1210 leukemia ip in BDF1 mice, survival T/C
Test: NCI In Vivo Anticancer Drug Screen. Data for tumor model L1210 Leukemia (intraperitoneal) in B6D2F1 (BDF1) mice
Details: endpoint: mean survival time, higher = longer survival
Procedure, shortened: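 Tumor was transplanted into mice, which were then dosed with test compound or vehicle alone. Survival was recorded for each group, and the treated figure was expressed relative to the control figure.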

[1] = dose: 100.0 mg/kg/injection, schedule: Q01DX009 (ip), vehicle: Klucel (hydroxypropylcellulose) (HPC)
[2] = dose: 200.0 mg/kg/injection, schedule: Q01DX009 (ip), vehicle: Klucel (hydroxypropylcellulose) (HPC)
[3] = dose: 400.0 mg/kg/injection, schedule: Q01DX009 (ip), vehicle: Klucel (hydroxypropylcellulose) (HPC)
[4] = dose: 100.0 mg/kg/injection, schedule: Q01DX001 (ip), vehicle: carboxymethylcellulose (CMC)
[5] = dose: 400.0 mg/kg/injection, schedule: Q01DX001 (ip), vehicle: carboxymethylcellulose (CMC)
[6] = dose: 100.0 mg/kg/injection, schedule: Q04DX002 (ip), vehicle: Klucel (hydroxypropylcellulose) (HPC)
[7] = dose: 200.0 mg/kg/injection, schedule: Q04DX002 (ip), vehicle: Klucel (hydroxypropylcellulose) (HPC)
[8] = dose: 100.0 mg/kg/injection, schedule: Q04DX003 (ip), vehicle: saline
[9] = dose: 200.0 mg/kg/injection, schedule: Q04DX003 (ip), vehicle: saline
[10] = dose: 100.0 mg/kg/injection, schedule: Q04DX003 (ip), vehicle: Klucel (hydroxypropylcellulose) (HPC)
[11] = dose: 200.0 mg/kg/injection, schedule: Q04DX003 (ip), vehicle: Klucel (hydroxypropylcellulose) (HPC)
[12] = dose: 400.0 mg/kg/injection, schedule: Q04DX003 (ip), vehicle: Klucel (hydroxypropylcellulose) (HPC)
[13] = dose: 200.0 mg/kg/injection, schedule: Q01DX001 (ip), vehicle: other
[14] = dose: 400.0 mg/kg/injection, schedule: Q01DX001 (ip), vehicle: other
[15] = dose: 50.0 mg/kg/injection, schedule: Q04DX003 (ip), vehicle: Klucel (hydroxypropylcellulose) (HPC)

Measured: T/C

CC(CN(C)N=O)C1CCC2C3CC=C4CC(O)CCC4(C)C3CCC12C (stereo not drawn)
inactive: dose: 100.0 mg/kg/injection, schedule: Q01DX001 (sc), vehicle: steriod suspending solution 96 % of control | dose: 200.0 mg/kg/injection, schedule: Q01DX001 (sc), vehicle: steriod suspending solution 96 % of control | dose: 400.0 mg/kg/injection, schedule: Q01DX001 (sc), vehicle: steriod suspending solution 100 % of control

C(=N\N(c1ccccc1)c1ccccc1)/c1ccc(/C=N/N(c2ccccc2)c2ccccc2)cc1
inactive: [1] 92 % of control | [2] 90 % of control | [3] 96 % of control

O=C1CC2(CC3(Cl)C(Cl)=C(Cl)C2(Cl)C3(Cl)Cl)C(=O)O1 (stereo not drawn)
inactive: dose: 50.0 mg/kg/injection, schedule: Q01DX001 (ip), vehicle: carboxymethylcellulose (CMC) 100 % of control | [4] 102 % of control | dose: 200.0 mg/kg/injection, schedule: Q01DX001 (ip), vehicle: carboxymethylcellulose (CMC) 102 % of control | [5] 102 % of control

O=c1[nH]ncc2ccc([N+](=O)[O-])cc12
inactive: dose: 75.0 mg/kg/injection, schedule: Q01DX001 (ip), vehicle: other 103 % of control | dose: 150.0 mg/kg/injection, schedule: Q01DX001 (ip), vehicle: other 101 % of control

CC(C)=CCn1cnc2c1c(=O)n(C)c(=O)n2C
inactive: dose: 50.0 mg/kg/injection, schedule: Q04DX002 (ip), vehicle: Klucel (hydroxypropylcellulose) (HPC) 100 % of control | [6] 88 % of control | [7] 96 % of control

O=C(O)C1CC(Br)C(Br)CC1C(=O)Nc1ccc(Cl)c(Cl)c1 (stereo not drawn)
inactive: [6] 115 % of control | [7] 121 % of control

Cc1ccc(NC(=O)SCc2ccccc2)c([N+](=O)[O-])c1
inactive: [1] 98 % of control | [2] 100 % of control | [3] 93 % of control

COc1cc2c(C)cc(=O)oc2cc1O
inactive: [4] 98 % of control | [5] 93 % of control

CC(C)c1ccc(C(=O)CCCCl)cc1
inactive: dose: 100.0 mg/kg/injection, schedule: Q04DX003 (ip), vehicle: saline with Tween-80 97 % of control | dose: 200.0 mg/kg/injection, schedule: Q04DX003 (ip), vehicle: saline with Tween-80 102 % of control | dose: 400.0 mg/kg/injection, schedule: Q04DX003 (ip), vehicle: saline with Tween-80 92 % of control

CC1CC(C)(C)N=C(C(C)CC(C)(C)C)O1 (stereo not drawn)
inactive: [8] 105 % of control | [9] 94 % of control

O=C(C=C(C(F)(F)F)C(F)(F)F)c1ccccc1Cl
inactive: dose: 12.5 mg/kg/injection, schedule: Q04DX003 (ip), vehicle: saline with Tween-80 97 % of control | dose: 25.0 mg/kg/injection, schedule: Q04DX003 (ip), vehicle: saline with Tween-80 86 % of control | dose: 50.0 mg/kg/injection, schedule: Q04DX003 (ip), vehicle: saline with Tween-80 100 % of control

CN(C)CCOC(=O)c1ccc(C=O)cc1
inactive: dose: 100.0 mg/kg/injection, schedule: Q04DX002 (ip), vehicle: saline 105 % of control | dose: 200.0 mg/kg/injection, schedule: Q04DX002 (ip), vehicle: saline 110 % of control | dose: 400.0 mg/kg/injection, schedule: Q04DX002 (ip), vehicle: saline 90 % of control

BrC1C2C=CC(C2)C1Br (stereo not drawn)
inactive: [10] 102 % of control | [11] 100 % of control | [12] 92 % of control

CCOC(=O)COc1ccc(C=O)cc1
inactive: [1] 110 % of control | [10] 102 % of control | [2] 96 % of control | [11] 96 % of control | [3] 98 % of control | [12] 97 % of control

CS(=O)(=O)N(c1ccccc1)c1ccccc1N
inactive: dose: 100.0 mg/kg/injection, schedule: Q01DX001 (ip), vehicle: other 94 % of control | [13] 107 % of control | [14] 88 % of control

CN(C)c1ccc(/C=C/c2nc3ccc(Cl)cc3[nH]2)cc1
inactive: [10] 96 % of control | [11] 103 % of control | [12] 96 % of control

CC(=O)C(c1ccc(N(C)C)cc1)c1ccc(N(C)C)cc1
inactive: dose: 50.0 mg/kg/injection, schedule: Q01DX001 (ip), vehicle: saline 101 % of control | dose: 100.0 mg/kg/injection, schedule: Q01DX001 (ip), vehicle: saline 101 % of control | dose: 200.0 mg/kg/injection, schedule: Q01DX001 (ip), vehicle: saline 101 % of control | dose: 400.0 mg/kg/injection, schedule: Q01DX001 (ip), vehicle: saline 101 % of control

CN(C)N(P(N)(Cl)(c1ccccc1)c1ccccc1)P(N)(Cl)(c1ccccc1)c1ccccc1
inactive: dose: 5.0 mg/kg/injection, schedule: Q01DX001 (ip), vehicle: steriod suspending solution 100 % of control | dose: 10.0 mg/kg/injection, schedule: Q01DX001 (ip), vehicle: steriod suspending solution 105 % of control | dose: 20.0 mg/kg/injection, schedule: Q01DX001 (ip), vehicle: steriod suspending solution 97 % of control | dose: 40.0 mg/kg/injection, schedule: Q01DX001 (ip), vehicle: steriod suspending solution 103 % of control | dose: 80.0 mg/kg/injection, schedule: Q01DX001 (ip), vehicle: steriod suspending solution 94 % of control

O=S1(=O)CC23CC=CCC2(CC=CC3)C1 (stereo not drawn)
inactive: dose: 50.0 mg/kg/injection, schedule: Q01DX009 (ip), vehicle: Klucel (hydroxypropylcellulose) (HPC) 100 % of control | [1] 97 % of control | [2] 96 % of control

CN(C)/N=C\c1ccc(C(=O)O)cc1
inactive: [15] 92 % of control | dose: 50.0 mg/kg/injection, schedule: Q04DX003 (ip), vehicle: saline 114 % of control | [10] 88 % of control | [8] 109 % of control | [11] 95 % of control | [9] 114 % of control | [12] 93 % of control | dose: 400.0 mg/kg/injection, schedule: Q04DX003 (ip), vehicle: saline 100 % of control

O=C(O)COc1ccc(Cl)cc1Cc1ccccc1
inactive: dose: 100.0 mg/kg/injection, schedule: Q01DX001 (ip), vehicle: saline with Tween-80 98 % of control | dose: 200.0 mg/kg/injection, schedule: Q01DX001 (ip), vehicle: saline with Tween-80 96 % of control | dose: 400.0 mg/kg/injection, schedule: Q01DX001 (ip), vehicle: saline with Tween-80 117 % of control

c1cc(B2OCCNCCO2)ccc1B1OCCNCCO1
inactive: [10] 103 % of control | [11] 98 % of control | [12] 104 % of control

B1CCN1
inactive: dose: 9.5 mg/kg/injection, schedule: Q01DX001 (ip), vehicle: saline 94 % of control | dose: 19.0 mg/kg/injection, schedule: Q01DX001 (ip), vehicle: saline 103 % of control

CCOP(=O)(N1CC1(C)C)N1CC1(C)C (stereo not drawn)
inactive: dose: 1.0 mg/kg/injection, schedule: Q01DX009 (ip), vehicle: saline 100 % of control | dose: 2.0 mg/kg/injection, schedule: Q01DX009 (ip), vehicle: saline 105 % of control | dose: 4.0 mg/kg/injection, schedule: Q01DX009 (ip), vehicle: saline 110 % of control | dose: 80.0 mg/kg/injection, schedule: Q01DX009 (ip), vehicle: saline 91 % of control
active: dose: 20.0 mg/kg/injection, schedule: Q01DX009 (ip), vehicle: saline 161 % of control | dose: 25.0 mg/kg/injection, schedule: Q01DX001 (ip), vehicle: other 209 % of control | dose: 30.0 mg/kg/injection, schedule: Q01DX009 (ip), vehicle: saline 209 % of control | dose: 50.0 mg/kg/injection, schedule: Q01DX001 (ip), vehicle: other 201 % of control | dose: 52.0 mg/kg/injection, schedule: Q01DX009 (ip), vehicle: Klucel (hydroxypropylcellulose) (HPC) 177 % of control | dose: 53.0 mg/kg/injection, schedule: Q01DX001 (ip), vehicle: saline 152 % of control | dose: 80.0 mg/kg/injection, schedule: Q01DX001 (ip), vehicle: other 151 % of control | dose: 80.0 mg/kg/injection, schedule: Q01DX001 (ip), vehicle: saline 152 % of control | dose: 120.0 mg/kg/injection, schedule: Q01DX001 (ip), vehicle: other 162 % of control | dose: 120.0 mg/kg/injection, schedule: Q01DX001 (ip), vehicle: saline 273 % of control | dose: 177.0 mg/kg/injection, schedule: Q01DX001 (ip), vehicle: saline 174 % of control | dose: 180.0 mg/kg/injection, schedule: Q01DX001 (ip), vehicle: other 224 % of control | [13] 223 % of control | [14] 226 % of control

O=C(O)[C@H]1CCCC[C@H]1C(=O)O
inactive: [15] 98 % of control | [10] 95 % of control | [11] 103 % of control and 106 % of control | [12] 100 % of control
